Tests used:
human lymphocytes [1] = assay: S ratio measured by FISH in lymphocytes of humans exposed in vivo (benzene workers, tritium worker)
Excerpt: Except where noted, all data analyzed were obtained using FISH. Identification and scoring of chromosome exchange aberrations using chromosome painting to generate additional data employed the methods of J. M. Lucas, et al., Rapid translocation frequency analysis in humans decades after exposure to ionizing radiation, Int'l. […] The chromosome exchange aberrations scored here were apparently simple (AS) exchange-type painting patterns.
The pattern resembles that of translocations. An incomplete apparently simple (AS) translocation pattern resembles that of an incomplete reciprocal translocation where the solid painted fragment contains one centromere. These aberrations are those translocations where reciprocity of the exchange event is not registered, either because the exchanged is actually incomplete, or because one of the exchanges segments involves the extreme, unpainted, terminal part of the arm.
Incomplete apparently simple translocations were recognized as bicolor chromosome derivatives, where the centromere resides on the unpainted segment.
Where possible, data were combined, and in some cases, additional scoring was performed to improve statistics. The blind scoring of coded photomicrographs was performed by technicians unfamiliar with the project goal. Photomicrographs were either reanalyzed from previous studies, or new photomicrographs were analyzed for this study.
The significance estimate for testing the equality of S-ratios between any two populations compared here was calculated by a likelihood ratio test using a Generalized Linear Model (GLM) on two nested hypotheses. The four outcomes were assumed to be distributed as independent Poisson random variates with a logarithmic link function. The null hypothesis included terms for offset, population and outcome type. The alternative included an additional interaction term. […]

human lymphocytes [2] = assay: S ratio (apparently simple translocations / incompletes) measured by FISH after in vitro exposure to clastogenic agents; format: cell-based
Method: Identification and scoring of chromosome exchange aberrations was performed using FISH as described in Lucas, et al., Rapid translocation frequency analysis in humans decades after exposure to ionizing radiationi, Int'l. J. Radiat. Biol., 62:53-63 (1992). The scoring criteria used (apparently […] exchange-type painting pattern) was equivalent to those described in Simpson, et al. Estimating the true frequency of X-ray-induced complex chromosome exchanges using fluorescence in situ hybridization, Int'l. J. Radiat. Biol., 67:37-45 (1995). Only apparently simple translocations (ASTs) and dicentrics (ASD's) were used to calculate F ratios because equality for translocations and dicentrics has been shown only for AST's and ASD's mathematically (Lucas, et al., Int'l. J. Radiat. Biol., 69:145-153 (1996) and experimentally (Simpson, et al., Int'l. J. Radiat. Biol., 67:37-45 (1995); Kovacs et al., Radiation Research, 137:34-43. (1994). The translocation frequency measured by FISH was scaled to full-genome equivalents using the formula in Lucas, et al., Int'l. J. Radiat. Biol., 62:53-63 (1992), herein by reference. In brief, the formula relates the translocation frequency measured by FISH, Fp, to the genomic translocation frequencies, FG, through the fraction of the genome covered by the probes, fp, as follows:
Cells were irradiated with ^60 Co and ^137 Cs gamma rays in order to produce aberrations and detect the frequency of their occurance. Irradiation of cells with ^60 Co and ^137 Cs gamma rays has been described elsewhere. Lucas, J. N., et al., Rapid determination of human chromosome translocation frequency using a pair of chromosome-specific DNA probes, Int'l. J. Radiat. Biol., 56:35-44 (1989). […]
Except where noted, all data analyzed were obtained using FISH. […] The chromosome exchange aberrations scored here were apparently simple (AS) exchange-type painting patterns. Simpson, P. J. and Savage, J. R. K., Estimating the true frequency of X-ray-induced complex chromosome exchanges using fluorescence in situ hybridization, Int'l. […]

[3] = 20 benzene workers with history of benzene poisoning, 18,583 cells
[4] = in vitro exposure, 1800 cells (bleomycin), 5,809 cells (tritium, 0.6 Gy)

Compound	ASTs (apparently simple / complete translocations) (human lymphocytes [1]; [3])	Inc (incomplete apparently simple translocations) (human lymphocytes [1]; [3])	S ratio compared with low-LET radiation (human lymphocytes [1]; benzene workers, vs low-LET radiation)	ASTs (apparently simple translocations) (human lymphocytes [2]; [4])	Inc (incomplete apparently simple translocations) (human lymphocytes [2]; [4])	S ratio compared with low-LET radiation (human lymphocytes [2]; in vitro, vs low-LET radiation)
c1ccccc1 [Benzene, benzene]	50	25	significantly lower than those measured for low-LET radiation			
bleomycin				49	21	significantly lower than those measured for low-LET radiation

Source: US6043037A, “Rapid method for measuring clastogenic fingerprints using fluorescence in situ hybridization” (The Regents of the University of California, priority 1997, dated 2000)
